Experimental data taken from patent US20050113450A1, “Antibacterial agents” (priority 2002, published 2005).
Converted amounts (≈) assume the structure as drawn.

Test system: SA 9218
Assay: MIC by standard agar dilution method
Assay type: cell-based
Settings: Mueller Hinton agar, 10^4 to 10^5 cells per spot, incubated overnight at 35° C., lowest concentration that inhibits visible growth
How it was run: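 MIC read after overnight 35 °C incubation as lowest drug level preventing visible growth. Inoculum of roughly 10^4–10^5 cells per spot (0.5 McFarland, 1:20 in TSB) applied to Mueller Hinton agar containing serial 2-fold compound dilutions.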

| Compound | MIC [µg/mL] | SA 9218 MIC [µg/mL] |
| --- | --- | --- |
| CCOCC(=NO)c1ccc(C(=O)Nc2ccc(Cl)cc2C(=O)O)cc1 | 64 (≈ 170 µM) | – |
| CC(=O)Oc1ccc(N2C(=O)c3ccc(C(=O)Nc4ccc(Br)cc4C(=O)O)cc3C2=O)cc1 | 64 (≈ 122 µM) | – |
| O=C(Nc1ccc(Cl)cc1C(=O)O)c1ccc(C(=NO)C2CCCO2)cc1 (stereo not drawn) | 32 (≈ 82.3 µM) | – |
| COc1ccc(C(=O)Nc2ccc(Br)cc2C(=O)O)cc1S(=O)(=O)NCCc1ccc(N)cc1 | 128 (≈ 233 µM) | – |
| O=C(Nc1ccc(Br)cc1C(=O)O)c1cccc(S(=O)(=O)NCCCn2ccnc2)c1 | 64 (≈ 126 µM) | – |
| O=C(Nc1ccc(Br)cc1C(=O)O)c1ccc(Br)c(S(=O)(=O)NC2Cc3ccccc3C2)c1 | 64 (≈ 108 µM) | – |
| CCN(CC)c1ccc(NS(=O)(=O)c2cc(C(=O)Nc3ccc(Br)cc3C(=O)O)ccc2Br)cc1 | 64 (≈ 102 µM) | – |
| O=C(Nc1ccc(Br)cc1C(=O)O)c1cccc(S(=O)(=O)N2CCc3ccc(Cl)cc32)c1 | 2 (≈ 3.73 µM) | – |
| CCN(CC)c1ccc(NS(=O)(=O)c2ccc(C(=O)Nc3ccc(Br)cc3C(=O)O)cc2)cc1 | 32 (≈ 58.6 µM) | – |
| O=C(Nc1ccc(Br)cc1C(=O)O)c1ccc(S(=O)(=O)C2CCc3ccc(Cl)cc32)cc1 (stereo not drawn) | 0.5 (≈ 0.935 µM) | – |
| O=C(Nc1ccc(Br)cc1C(=O)O)c1cc(S(=O)(=O)N2CCc3ccc(Cl)cc32)ccc1Br | 2 (≈ 3.25 µM) | – |
| O=C(Nc1ccc(Br)cc1C(=O)O)c1cc(F)ccc1F | 128 (≈ 359 µM) | – |
| O=C(Nc1ccc(Br)cc1C(=O)O)c1cc(S(=O)(=O)N2CCc3ccc(Cl)cc32)c(F)cc1Cl | 16 (≈ 27.2 µM) | – |
| O=C(Nc1ccc(Br)cc1C(=O)O)c1cccc(Br)c1 | 8 (≈ 20 µM) | – |
| O=C(O)c1cc(Br)ccc1NC(=O)c1cccc2c1-c1ccccc1C2=O | 128 (≈ 303 µM) | – |
| O=C(Nc1ccc(Br)cc1C(=O)O)c1cccc(Cl)c1 | 8 (≈ 22.6 µM) | – |
| N#Cc1cccc(C(=O)Nc2ccc(Br)cc2C(=O)O)c1 | > 128 | – |
| CN(C)c1cccc(C(=O)Nc2ccc(Br)cc2C(=O)O)c1 | 32 (≈ 88.1 µM) | – |
| O=C(Nc1ccc(Br)cc1C(=O)O)c1cccc(F)c1 | 64 (≈ 189 µM) | – |
| COc1cc(C(=O)Nc2ccc(Br)cc2C(=O)O)cc(OC)c1OC | 32 (≈ 78 µM) | – |
| O=C(Nc1ccc(Br)cc1C(=O)O)c1cc(Cl)cc(Cl)c1 | 8 (≈ 20.6 µM) | – |
| CCOC(=O)Oc1c(OC)cc(C(=O)Nc2ccc(Br)cc2C(=O)O)cc1OC | 128 (≈ 273 µM) | – |
| COc1ccc(C(=O)Nc2ccc(Br)cc2C(=O)O)cc1OC | 128 (≈ 337 µM) | – |

| Compound | MIC [µg/mL] | SA 9218 MIC [µg/mL] |
| --- | --- | --- |
| CCOc1cc(C(=O)Nc2ccc(Br)cc2C(=O)O)cc(OCC)c1OCC | 32 (≈ 70.7 µM) | – |
| COc1cc(OC)cc(C(=O)Nc2ccc(Br)cc2C(=O)O)c1 | 16 (≈ 42.1 µM) | – |
| Cc1cccc(C(=O)Nc2ccc(Br)cc2C(=O)O)c1 | 64 (≈ 192 µM) | – |
| CCOc1ccc(C(=O)Nc2ccc(Br)cc2C(=O)O)cc1OCC | > 128 | – |
| O=C(Nc1ccc(Br)cc1C(=O)O)c1ccc(F)cc1 | 64 (≈ 189 µM) | – |
| O=C(Nc1ccc(Br)cc1C(=O)O)c1cccc(C(F)(F)F)c1 | 8 (≈ 20.6 µM) | – |
| CCN(CC)c1ccc(C(=O)Nc2ccc(Br)cc2C(=O)O)cc1 | 32 (≈ 81.8 µM) | – |
| N#Cc1ccc(C(=O)Nc2ccc(Br)cc2C(=O)O)cc1 | 128 (≈ 371 µM) | – |
| O=C(Nc1ccc(Br)cc1C(=O)O)c1ccc(-c2ccccc2)cc1 | 32 (≈ 80.8 µM) | – |
| CN(C)c1ccc(C(=O)Nc2ccc(Br)cc2C(=O)O)cc1 | 32 (≈ 88.1 µM) | – |
| CCSc1ccc(C(=O)Nc2ccc(Br)cc2C(=O)O)cc1 | 0.5 (≈ 1.31 µM) | – |
| CCCCOc1ccc(C(=O)Nc2ccc(Br)cc2C(=O)O)cc1 | 8 (≈ 20.4 µM) | – |
| O=C(Nc1ccc(Br)cc1C(=O)O)c1ccc(C(F)(F)F)cc1 | 32 (≈ 82.4 µM) | – |
| CSc1ccc(C(=O)Nc2ccc(Br)cc2C(=O)O)cc1 | 2 (≈ 5.46 µM) | – |
| C=Cc1ccc(C(=O)Nc2ccc(Br)cc2C(=O)O)cc1 | > 128 | – |
| COC(=O)c1ccc(C(=O)Nc2ccc(Br)cc2C(=O)O)cc1 | 32 (≈ 84.6 µM) | – |
| O=C(O)c1cc(Br)ccc1NC(=O)c1ccc(F)c2ccccc12 | 32 (≈ 82.4 µM) | – |
| COc1cc(C(=O)Nc2ccc(Br)cc2C(=O)O)ccc1C | > 128 | – |
| O=C(Nc1ccc(Br)cc1C(=O)O)c1ccc2c(c1)OCO2 | 16 (≈ 43.9 µM) | – |
| O=C(O)c1cc(Br)ccc1NC(=O)c1cccc2ccccc12 | 32 (≈ 86.4 µM) | – |
| O=C(Nc1ccc(Br)cc1C(=O)O)c1cccc([N+](=O)[O-])c1 | 128 (≈ 351 µM) | – |
| O=C(Nc1ccc(Br)cc1C(=O)O)c1ccc2ccccc2c1 | 2 (≈ 5.4 µM) | – |
| CS(=O)(=O)c1ccc(C(=O)Nc2ccc(Br)cc2C(=O)O)cc1 | 64 (≈ 161 µM) | – |

| Compound | MIC [µg/mL] | SA 9218 MIC [µg/mL] |
| --- | --- | --- |
| O=Cc1ccc(C(=O)Nc2ccc(Br)cc2C(=O)O)cc1 | > 128 | – |
| COC(=O)c1cc(C(=O)Nc2ccc(Br)cc2C(=O)O)cc([N+](=O)[O-])c1 | 64 (≈ 151 µM) | – |
| COc1cc(C(=O)Nc2ccc(Br)cc2C(=O)O)ccc1[N+](=O)[O-] | 32 (≈ 81 µM) | – |
| O=C(Nc1ccc(Br)cc1C(=O)O)c1ccc(F)c(F)c1 | 32 (≈ 89.9 µM) | – |
| CSc1ccc(Cl)c(C(=O)Nc2ccc(Br)cc2C(=O)O)c1 | > 128 | – |
| COc1cc(C(=O)Nc2ccc(Br)cc2C(=O)O)c([N+](=O)[O-])cc1OC | > 128 | – |
| O=C(O)c1cc(Br)ccc1NC(=O)c1cccc2c1C(=O)c1ccccc1-2 | > 128 | – |
| COc1cc(Br)c(C(=O)Nc2ccc(Br)cc2C(=O)O)cc1OC | > 128 | – |
| CCCOc1ccc(C(=O)Nc2ccc(Br)cc2C(=O)O)cc1 | 64 (≈ 169 µM) | – |
| O=Cc1cccc(C(=O)Nc2ccc(Br)cc2C(=O)O)c1 | > 128 | – |
| CC(=O)Oc1cccc(C(=O)Nc2ccc(Br)cc2C(=O)O)c1 | 128 (≈ 338 µM) | – |
| COc1ccc(C(=O)Nc2ccc(Br)cc2C(=O)O)cc1F | 16 (≈ 43.5 µM) | – |
| COc1ccc(Br)c(C(=O)Nc2ccc(Br)cc2C(=O)O)c1 | 128 (≈ 298 µM) | – |
| O=C(Nc1ccc(Br)cc1C(=O)O)c1ccc2c(c1)S(=O)(=O)c1ccccc1C2=O | 16 (≈ 32.9 µM) | – |
| Cc1ccc(F)cc1C(=O)Nc1ccc(Br)cc1C(=O)O | 64 (≈ 182 µM) | – |
| COc1ccc([N+](=O)[O-])c(C(=O)Nc2ccc(Br)cc2C(=O)O)c1 | > 128 | – |
| O=C(Nc1ccc(Br)cc1C(=O)O)c1cc(C(F)(F)F)ccc1Cl | > 128 | – |
| N#Cc1ccc(NC(=O)c2cccc(O)c2)c(C(=O)O)c1 | 32 (≈ 113 µM) | – |
| CCN(CC)C(=O)c1c(F)ccc(F)c1C(=O)Nc1ccc(Br)cc1C(=O)O | > 128 | – |
| O=C(Nc1ccc(Br)cc1C(=O)O)c1cc(S(=O)(=O)Nc2ccc3c(c2)OCCO3)c(F)cc1Cl | 128 (≈ 219 µM) | – |
| O=C(Nc1ccc(Br)cc1C(=O)O)c1ccc(OC(F)F)cc1 | 64 (≈ 166 µM) | – |
| O=C(Nc1ccc(Br)cc1C(=O)O)c1cc(S(=O)(=O)Nc2ccc(Cl)cc2)ccc1Br | 4 (≈ 6.8 µM) | – |
| O=C(Nc1ccc(-c2ccccc2)cc1C(=O)O)c1ccc(S(=O)(=O)N2CCc3ccccc32)cc1 [L-217792] | 8 (≈ 16 µM) | – |

| Compound | MIC [µg/mL] | SA 9218 MIC [µg/mL] |
| --- | --- | --- |
| CN(c1ccc(Cl)cc1)S(=O)(=O)c1cccc(C(=O)Nc2ccc(C(F)(F)F)cc2C(=O)O)c1 [PHA-500334] | 16 (≈ 31.2 µM) | – |
| O=C(Nc1ccc(Br)cc1C(=O)O)c1cccc(CSc2ccccc2)c1 [PHA-501684] | 1 (≈ 2.26 µM) | – |
| O=C(Nc1ccc(Br)cc1C(=O)O)c1cccc(OCc2ccccc2)c1 [PHA-501685] | – | 2 |
| CCSc1cccc(C(=O)Nc2ccc(Br)cc2C(=O)O)c1 [PHA-501748] | 2 (≈ 5.26 µM) | – |
| Cl.O=C(Nc1ccc(Br)cc1C(=O)O)c1cccc(SCc2ccncc2)c1 [PHA-502339A] | 8 | – |
| O=C(Nc1ccc(Br)cc1C(=O)O)c1cccc(SCc2ccncc2)c1 [PHA-502339] | 2 (≈ 4.51 µM) | – |
| COc1cccc(C(=O)Nc2ccc(Br)cc2C(=O)O)c1 [PHA-504639] | 4 (≈ 11.4 µM) | – |
| CN(c1ccc(Cl)cc1)S(=O)(=O)c1cc(Br)cc(C(=O)Nc2ccc(Cl)cc2C(=O)O)c1 [PHA-509059] | 0.5 (≈ 0.896 µM) | – |
| O=C(Nc1ccc(Br)cc1C(=O)O)c1cccc(Oc2ccccc2)c1 [PHA-513535] | 2 (≈ 4.85 µM) | – |
| CS(=O)(=O)c1cccc(C(=O)Nc2ccc(Br)cc2C(=O)O)c1 [PHA-513541] | 64 (≈ 161 µM) | – |
| O=C(Nc1ccc(Br)cc1C(=O)O)c1cccc(C(=O)c2ccccc2)c1 [PHA-515448] | 2 (≈ 4.71 µM) | – |
| CN(c1ccc(Cl)cc1)S(=O)(=O)c1cc(C(=O)Nc2ccc(Br)cc2C(=O)O)cc([N+](=O)[O-])c1 [PHA-515583] | 8 (≈ 14.1 µM) | – |
| O=C(Nc1ccc(Br)cc1C(=O)O)c1cc(Br)cc(S(=O)(=O)N2CCc3cc(Br)ccc32)c1 [PHA-515585] | 1 (≈ 1.52 µM) | – |
| CN(c1ccccn1)S(=O)(=O)c1ccc(C(=O)Nc2ccc(Br)cc2C(=O)O)cc1 [PHA-516112] | 8 (≈ 16.3 µM) | – |
| CN(c1ccccc1N)S(=O)(=O)c1ccc(C(=O)Nc2ccc(Br)cc2C(=O)O)cc1 [PHA-516113] | 2 (≈ 3.97 µM) | – |
| O=C(Nc1ccc(Br)cc1C(=O)O)c1cccc(S(=O)(=O)n2ccc3ccccc32)c1 [PHA-516116] | 0.5 (≈ 1 µM) | – |
| O=C(Nc1ccc(Cl)cc1C(=O)O)c1cccc(C(=O)c2ccccc2)c1 [PHA-518226] | – | 2 |
| O=C(Nc1ccc([N+](=O)[O-])cc1C(=O)O)c1cccc(C(=O)c2ccccc2)c1 [PHA-519402] | 0.5 (≈ 1.28 µM) | – |
| CC(=O)c1ccc(C(=O)Nc2ccc(Br)cc2C(=O)O)cc1 [PHA-520446] | 16 (≈ 44.2 µM) | – |
| O=C(Nc1ccc(Br)cc1C(=O)O)c1ccc(C(=O)c2ccccc2)cc1 [PHA-520447] | 1 (≈ 2.36 µM) | – |
| O=C(Nc1ccc(Br)cc1C(=O)O)c1cccc(S(=O)(=O)N2CCc3ccccc32)c1 [PHA-520938] | 1 (≈ 1.99 µM) | – |
